Counter-ions that a name gives are not always drawn.
Columns and labels:
[1] = biological target: T1, Human recombinant enteropeptidase (Homo sapiens, UniProt P98073); test: Human enteropeptidase inhibitory activity; assay type: biochemical; details: 1 μM test compound; fluorescence intensity at 2 hours after start of reaction; read-out: Inhibition rate at 1 μM
T1 construct: purchased ITSI-Biosciences LLC #REN-260
Experimental: Test Example 1: Human Enteropeptidase Inhibitory Activity
Human recombinant enteropeptidase (#REN-260, ITSI-Biosciences LLC) was diluted with an assay buffer (50 mM Tricine, pH 8.0, 0.01 (w/v) %, Tween 20, 10 mM CaCl2)) to prepare a 24 mU/mL enzyme solution. Subsequently, 5FAM-Abu-Gly-Asp-Asp-Asp-Lys-Ile-Val-Gly-Gly-Lys(CPQ2)-Lys-Lys-NH2 (CPC Scientific Inc.) was diluted with the assay buffer to prepare a 2.1 μM substrate solution. A test compound is dissolved in DMSO into a 10 mM solution, and the solution was diluted with the assay buffer to give a compound solution. To a 384-well black plate (#784076, Greiner Bio-One), 5 μL of the compound solution and 5 μL of the substrate solution were added and mixed, and 5 μL of the enzyme solution was then added to the mixture, followed by mixing to start the reaction. The fluorescence intensity was measured with a fluorescence plate reader EnVision (The Perkin-Elmer Corp.) at an excitation wavelength of 485 nm and a fluorescence wavelength of 535 nm. The same reaction as above was performed without the addition of the test compound (test compound non-addition group). Furthermore, the same reaction as above was performed without the addition of the test compound and the enzyme (control group). The inhibition rate was calculated using the fluorescence intensity at 2 hours after the start of the reaction by the following expression:
Inhibition rate (%)=(1−((fluorescence intensity of test compound addition group)−(fluorescence intensity of control group))/((fluorescence intensity of test compound non-addition group)−(fluorescence intensity of control group)))×100

High fat diet-fed mice = test: Fecal protein concentration-increasing test using high fat diet-fed mouse; assay type: in vivo; details: Mus musculus, po, 24 h, feces of first day of administration, vehicle group = 100, read-out: Fecal protein concentration-increasing rate; for response vs control in vivo at 30 mg/kg: 30 mg/kg oral
Source text: Test Example 2: Fecal Protein Concentration-Increasing Test Using High Fat Diet-Fed Mouse
High fat diet-fed mice (D12451 diet, male, 10- to 50-week old) were orally administered with a 0.5% methyl cellulose suspension containing a test compound (compound administration group, five mice per group) or a 0.5% methyl cellulose suspension (compound non-administration group (vehicle group), five mice per group), and whole feces were collected on the first day of administration. Dried feces were dissolved in 0.5 N NaOH, followed by centrifugation at 12,000 rpm. The protein concentration in the supernatant was then quantitatively measured (Lowry method), and the amount of protein contained in 1 g of feces was calculated as the fecal protein concentration (mg/g feces). The fecal protein concentration-increasing rate was calculated by the following expression.
Fecal protein concentration-increasing rate (%)=Fecal protein concentration of compound administration group/Fecal protein concentration of vehicle group×100

[2] = test system: Diet-induced obesity (DIO) mice; test: Anti-obesity effect test using DIO mouse; assay type: in vivo; details: for Body weight (g) At start of administration: average at start of administration; for Body weight (g) After 7-day administration: average; for Fecal protein concentration-increasing rate (%): feces of eighth day, vehicle = 100
Experimental: Test Example 3: Anti-Obesity Effect Test Using DIO Mouse
Diet-induced obesity (DIO) mice (D12451 diet, male, 26-week old) were orally administered with a 0.5% methyl cellulose suspension containing a test compound (30 mg/kg) (compound administration group, five mice per group) or a 0.5% methyl cellulose suspension (compound non-administration group (vehicle), five mice per group) once a day for seven days, and whole feces were collected on the eighth day of administration. Dried feces were dissolved in 0.5 N NaOH, followed by centrifugation at 12,000 rpm. The protein concentration in the supernatant was then quantitatively measured (Lowry method), and the amount of protein contained in 1 g of feces was calculated as the fecal protein concentration (mg/g feces). The fecal protein concentration-increasing rate was calculated by the following expression.
Fecal protein concentration-increasing rate (%)=Fecal protein concentration of compound administration group/Fecal protein concentration of vehicle group X 100
The fecal protein concentration-increasing rate and the averages of the body weights at the start of administration and after administration for seven days are shown in Table 6.
Also, DIO mice (D12451 diet, male, 59-week old) were orally administered with a 0.5% methyl cellulose suspension containing a test compound (20 mg/kg) (compound administration group, five mice per group) or a 0.5% methyl cellulose suspension (compound non-administration group (vehicle), five mice per group) once a day for seven days, and whole feces were collected on the eighth day of administration. The fecal protein concentration (mg/g feces) was calculated by the method described above. The fecal protein concentration-increasing rate and the averages of the body weights at the start of administration and after administration for seven days are shown in Table 7.

[3] = DIO mice 26-week old, 30 mg/kg group
[4] = DIO mice 26-week old, 30 mg/kg oral once a day for seven days
[5] = DIO mice 59-week old, 20 mg/kg group
[6] = DIO mice 59-week old, 20 mg/kg oral once a day for seven days

T1 sequence (P98073 whole entry): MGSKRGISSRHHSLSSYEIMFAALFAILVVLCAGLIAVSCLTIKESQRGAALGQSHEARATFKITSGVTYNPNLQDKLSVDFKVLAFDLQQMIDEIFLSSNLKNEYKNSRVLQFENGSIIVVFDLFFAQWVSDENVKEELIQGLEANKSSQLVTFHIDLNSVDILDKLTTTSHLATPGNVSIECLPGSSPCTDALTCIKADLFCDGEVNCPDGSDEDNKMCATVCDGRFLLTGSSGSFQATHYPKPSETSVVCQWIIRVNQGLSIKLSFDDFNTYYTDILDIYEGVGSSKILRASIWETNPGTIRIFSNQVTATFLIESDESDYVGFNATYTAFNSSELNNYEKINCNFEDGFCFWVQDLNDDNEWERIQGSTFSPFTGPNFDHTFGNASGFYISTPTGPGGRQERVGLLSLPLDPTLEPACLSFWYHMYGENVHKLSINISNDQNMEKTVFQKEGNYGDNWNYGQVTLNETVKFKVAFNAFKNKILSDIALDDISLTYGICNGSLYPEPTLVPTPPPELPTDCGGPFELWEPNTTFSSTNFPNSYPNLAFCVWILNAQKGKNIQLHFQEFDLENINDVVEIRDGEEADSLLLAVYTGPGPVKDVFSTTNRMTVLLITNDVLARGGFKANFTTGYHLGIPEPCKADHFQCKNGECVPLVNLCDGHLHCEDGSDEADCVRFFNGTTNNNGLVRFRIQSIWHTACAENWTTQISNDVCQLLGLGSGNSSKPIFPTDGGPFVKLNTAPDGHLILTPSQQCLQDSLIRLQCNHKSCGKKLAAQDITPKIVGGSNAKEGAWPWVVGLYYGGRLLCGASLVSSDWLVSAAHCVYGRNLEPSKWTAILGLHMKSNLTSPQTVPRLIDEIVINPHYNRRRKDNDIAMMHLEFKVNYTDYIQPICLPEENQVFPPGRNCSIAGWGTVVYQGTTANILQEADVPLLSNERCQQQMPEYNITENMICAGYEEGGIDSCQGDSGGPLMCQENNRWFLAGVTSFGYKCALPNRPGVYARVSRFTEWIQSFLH

SMILES	inhibition at 1 µM [1]	response vs control in vivo at 30 mg/kg (High fat diet-fed mice)	Body weight (g) At start of administration [2, 3]	Body weight (g) After 7-day administration [2, 4]	Fecal protein concentration-increasing rate (%) [2, 4]	Body weight (g) At start of administration [2, 5]	Body weight (g) After 7-day administration [2, 6]	Fecal protein concentration-increasing rate (%) [2, 6]	response vs control in vivo at 10 mg/kg (High fat diet-fed mice; 10 mg/kg oral)
N=C(N)Nc1ccc(C(=O)Oc2cc(OCCOCCOCCOc3cc(OC(=O)c4ccc(NC(=N)N)cc4)cc(C(=O)N[C@H](CO)C(=O)O)c3)cc(C(=O)N[C@H](CO)C(=O)O)c2)cc1 [Example 10, (2R)-2-[[3-[2-[2-[2-[3-[[(1R)-1-Carboxy-2-hydroxyethyl]carbamoyl]-5-(4-guanidinobenzoyl)oxyphenoxy]ethoxy]ethoxy]ethoxy]-5-(4-guanidinobenzoyl)oxybenzoyl]amino]-3-hydroxypropanoic acid]	92%	179%							
N=C(N)Nc1ccc(C(=O)Oc2cc(OCCOCCOCCOc3cc(OC(=O)c4ccc(NC(=N)N)cc4)cc(C(=O)N[C@H](CCCCN)C(=O)O)c3)cc(C(=O)N[C@H](CCCCN)C(=O)O)c2)cc1 [Example 11, (2R)-6-Amino-2-[[3-[2-[2-[2-[3-[[(1R)-5-amino-1-carboxypentyl]carbamoyl]-5-(4-guanidinobenzoyl)oxyphenoxy]ethoxy]ethoxy]ethoxy]-5-(4-guanidinobenzoyl)oxybenzoyl]amino]hexanoic acid]	60%	171%							
N=C(N)Nc1ccc(C(=O)Oc2ccc(CCC(=O)N[C@@H](CC(=O)O)C(=O)O)c(OCCOCCOCCOc3cc(OC(=O)c4ccc(NC(=N)N)cc4)ccc3CCC(=O)N[C@@H](CC(=O)O)C(=O)O)c2)cc1 [Example 12, (2S)-2-[3-[2-[2-[2-[2-[2-[3-[[(1S)-1,2-Dicarboxyethyl]amino]-3-oxopropyl]-5-(4-guanidinobenzoyl)oxyphenoxy]ethoxy]ethoxy]ethoxy]-4-(4-guanidinobenzoyl)oxyphenyl]propanoylamino]butanedioic acid dihydrochloride]	100%	197%	45.4 g	44.7 g	280%				
N=C(N)Nc1ccc(C(=O)Oc2ccc(CCC(=O)N[C@H](CC(=O)O)C(=O)O)c(OCCOCCOc3cc(OC(=O)c4ccc(NC(=N)N)cc4)ccc3CCC(=O)N[C@H](CC(=O)O)C(=O)O)c2)cc1 [Example 13, (2R)-2-[3-[2-[2-[2-[2-[3-[[(1R)-1,2-Dicarboxyethyl]amino]-3-oxopropyl]-5-(4-guanidinobenzoyl)oxyphenoxy]ethoxy]ethoxy]-4-(4-guanidinobenzoyl)oxyphenyl]propanoylamino]butanedioic acid]	100%	150%							
N=C(N)Nc1ccc(C(=O)Oc2ccc(CCC(=O)N[C@H](CC(=O)O)C(=O)O)c(OCCOCCOCCOc3cc(OC(=O)c4ccc(NC(=N)N)cc4)ccc3CCC(=O)N[C@H](CC(=O)O)C(=O)O)c2)cc1 [Example 14, (2R)-2-[3-[2-[2-[2-[2-[2-[3-[[(1R)-1,2-Dicarboxyethyl]amino]-3-oxopropyl]-5-(4-guanidinobenzoyl)oxyphenoxy]ethoxy]ethoxy]ethoxy]-4-(4-guanidinobenzoyl)oxyphenyl]propanoylamino]butanedioic acid]	100%	171%							
Cl.Cl.N=C(N)Nc1ccc(C(=O)Oc2cc(OCCOCCOc3cc(OC(=O)c4ccc(NC(=N)N)cc4)cc(C(=O)N[C@H](CC(=O)O)C(=O)O)c3)cc(C(=O)N[C@H](CC(=O)O)C(=O)O)c2)cc1 [Example 15, (2R)-2-[[3-[2-[2-[3-[[(1R)-1,2-Dicarboxyethyl]carbamoyl]-5-(4-guanidinobenzoyl)oxyphenoxy]ethoxy]ethoxy]-5-(4-guanidinobenzoyl)oxybenzoyl]amino]butanedioic acid dihydrochloride]	100%	212%	46.0 g	43.4 g	250%	56.6 g	54.0 g	227%	

Now from value to compound, other results behind:

inhibition at 1 µM [1]	SMILES	response vs control in vivo at 30 mg/kg (High fat diet-fed mice)	Body weight (g) At start of administration [2, 3]	Body weight (g) After 7-day administration [2, 4]	Fecal protein concentration-increasing rate (%) [2, 4]	Body weight (g) At start of administration [2, 5]	Body weight (g) After 7-day administration [2, 6]	Fecal protein concentration-increasing rate (%) [2, 6]	response vs control in vivo at 10 mg/kg (High fat diet-fed mice; 10 mg/kg oral)
100%	N=C(N)Nc1ccc(C(=O)Oc2cc(OCCOc3cc(OC(=O)c4ccc(NC(=N)N)cc4)cc(C(=O)N[C@H](CC(=O)O)C(=O)O)c3)cc(C(=O)N[C@H](CC(=O)O)C(=O)O)c2)cc1 [Example 16, (2R)-2-[[3-[2-[3-[[(1R)-1,2-Dicarboxyethyl]carbamoyl]-5-(4-Guanidinobenzoyl)oxyphenoxy]ethoxy]-5-(4-guanidinobenzoyl)oxybenzoyl]amino]butanedioic acid dihydrochloride]	245%	45.7 g	44.7 g	271%				
100%	N=C(N)Nc1ccc(C(=O)Oc2cc(OCCOCCOc3cc(OC(=O)c4ccc(NC(=N)N)cc4F)cc(C(=O)N[C@H](CC(=O)O)C(=O)O)c3)cc(C(=O)N[C@H](CC(=O)O)C(=O)O)c2)c(F)c1 [Example 18, (2R)-2-[[3-[2-[2-[3-[[(1R)-1,2-Dicarboxyethyl]carbamoyl]-5-(2-fluoro-4-guanidinobenzoyl)oxyphenoxy]ethoxy]ethoxy]-5-(2-fluoro-4-guanidinobenzoyl)oxybenzoyl]amino]butanedioic acid]	142%							
100%	N=C(N)Nc1ccc(C(=O)Oc2ccc(OCCOCCOc3ccc(OC(=O)c4ccc(NC(=N)N)cc4)cc3C(=O)N[C@H](CC(=O)O)C(=O)O)c(C(=O)N[C@H](CC(=O)O)C(=O)O)c2)cc1 [Example 19, (2R)-2-[[2-[2-[2-[2-[[(1R)-1,2-Dicarboxyethyl]carbamoyl]-4-(4-guanidinobenzoyl)oxyphenoxy]ethoxy]ethoxy]-5-(4-guanidinobenzoyl)oxybenzoyl]amino]butanedioic acid]	215%							
99%	N=C(N)Nc1ccc(C(=O)Oc2cc(OCCOCCOc3cc(OC(=O)c4ccc(NC(=N)N)cc4)cc(C(=O)NCCS(=O)(=O)O)c3)cc(C(=O)NCCS(=O)(=O)O)c2)cc1 [Example 20, 2-[[3-(4-Guanidinobenzoyl)oxy-5-[2-[2-[3-(4-guanidinobenzoyl)oxy-5-(2-sulfoethylcarbamoyl)phenoxy]ethoxy]ethoxy]benzoyl]amino]ethanesulfonic acid ditrifluoroacetate]								143%
100%	N=C(N)Nc1ccc(C(=O)Oc2ccc(C(=O)N[C@H](CC(=O)O)C(=O)O)c(OCCOCCOc3cc(OC(=O)c4ccc(NC(=N)N)cc4)ccc3C(=O)N[C@H](CC(=O)O)C(=O)O)c2)cc1 [Example 21, (2R)-2-[[2-[2-[2-[2-[[(1R)-1,2-Dicarboxyethyl]carbamoyl]-5-(4-guanidinobenzoyl)oxyphenoxy]ethoxy]ethoxy]-4-(4-guanidinobenzoyl)oxybenzoyl]amino]butanedioic acid dihydrochloride]	203%				56.7 g	53.6 g	248%	

— patent US20210403420A1, “BENZOATE COMPOUND” (SCOHIA PHARMA, INC., priority 2018, published 2021)
